In patent US20080132554A1, “CRYSTAL FORM OF 2-(3-FLUORO-4-HYDROXYPHENYL)-7-VINYL-1,3-BENZOXAZOL-5-OL” (WYETH, priority 2006, published 2008):

Assay: Conversion of the crystal form when suspended and stirred in solvent
Format: physicochemical
Settings: room temperature, seven days
Text: The anhydrate crystal form (Form D) can be converted to other crystal forms under suitable conditions.

Compound: C=Cc1cc(O)cc2nc(-c3ccc(O)c(F)c3)oc12 [Form D, 2-(3-fluoro-4-hydroxyphenyl)-7-vinyl-1,3-benzoxazol-5-ol]
- crystal form conversion after suspension and stirring (in acetone): another anhydrate crystal form is obtained
- crystal form conversion after suspension and stirring (in ethanol): another anhydrate crystal form is obtained
- crystal form conversion after suspension and stirring (in methanol): another anhydrate crystal form is obtained
- crystal form conversion after suspension and stirring (in water): most of the anhydrate crystal form is converted to a hydrate crystal form
